The results in this text go back to US10455835B2, “Fungicidal compositions for controlling leaf spots in sugar beets” (Dow AgroSciences LLC, priority 2012, dated 2019).

The test system of this assay is Cercospora beticola (CERCBE). Put plainly: Activity vs. sugar beet leaf spot on inoculated sugar beet plants (disease severity). It counts as in vivo. The following applies: sugar beet 'HH88', factorial analysis across all rates and replicates. As to the method:
Evaluation of Protectant Activity of Fungicide Mixtures vs. sugar beet leaf spot caused by Cercospora beticola (CERCBE). Sugar beet plants (variety ‘HH88’) were grown in soil-less Metro mix and trimmed regularly to maintain an uniform plant size prior to test. To prepare inoculum, dried diseased beet leaves were placed in a moist chamber overnight to promote sporulation. Spores were rinsed off leaves with distilled water, filtered through cheesecloth to remove plant debris, then adjusted to 4×10^4 spores/ml. Tween 20 was added at 3 drops per 100 ml. Sugar beet seedlings were inoculated 3 days prior to or 4 to 5 days after fungicide treatments. Inoculated plants were kept in a dew chamber at 22° C. for 48 hr then incubated in a greenhouse set at 24° C. under a clear plastic hood until disease symptoms were fully expressed. Disease severity was assessed on both treated and untreated plants.
The following fungicides were used for an efficacy example:
The efficacy of various formulations is shown in the table below wherein the values are percent disease severity. Results of the factorial analysis across all rates and replicates.

As to `CC1COC(Cn2cncn2)(c2ccc(Oc3ccc(Cl)cc3)cc2Cl)O1` (centres unmarked) [difenconazole, 1H-1,2,4-Triazole, 1-((2-(2-chloro-4-(4-chlorophenoxy)phenyl)-4-methyl-1,3-dioxolan-2-yl)methyl)-], the percent disease severity was found to be 1.2 b percent (Ex. 1, 3DC (inoculated 3 days prior to fungicide treatment), untreated disease severity 23.0); 2.2 b percent (Ex. 2, 5DP (inoculated 5 days after fungicide treatment), untreated disease severity 31.0); 0.6 c percent (Ex. 3, 3DC (inoculated 3 days prior to fungicide treatment), untreated disease severity 48.0); 2.5 b percent (Ex. 4, 4DP (inoculated 4 days after fungicide treatment), untreated disease severity 35.0); 0.4 c percent (Ex. 5, 3DC (inoculated 3 days prior to fungicide treatment), untreated disease severity 26.0).
